Results reported in paper PMC8632988, “Inhibition of SYK and cSrc kinases can protect bone and cartilage in preclinical models of osteoarthritis and rheumatoid arthritis” (Scientific Reports, 2021).
“And” between values parts separate entries of the source, which are not always exact repeats. Equal entries are not always repeated.

Tests used:
mongrel rats, AIA model = assay: Adjuvant-induced arthritis in rats; format: in vivo
Description: Rat adjuvant-induced arthritis (AIA) model was performed at Pharmenterprises, Russia as described previously^3 and approved by Ethics Committee of Pharmenterprises. Male 10 week old mongrel rats were divided into eleven groups: negative control (#1), positive control (#2) and nine treatment groups (#3–11), ten […] in each group. Group #1 was left intact, while subplantar injection of 0.1 mL of Complete Freund’s adjuvant (CFA, Sigma) was made on day 0 at right paws of rats in groups […]. […] Disease progression was monitored by measuring volumes of the right (involved) and left (non-involved) paws on days 0, 14, 18, 21, 25, and 28.

Lewis rats, CIA model = assay: Collagen-induced semi-established arthritis model in rats; format: in vivo, rat
Description: Rat CIA model was performed was performed at Pharmenterprises, Russia and approved by Ethics Committee of Pharmenterprises. Female Lewis rats with body weight of 164–183 g (Charles River Laboratories, Inc., Wilmington, MA) were injected with porcine type II collagen (Chondrex) emulsified with Freund’s Incomplete Adjuvant (Sigma Aldrich) at two sites at the base of the tail according to standard protocol. On day 7, the rats were boosted with a second subcutaneous injection. On day 6 of the study, rats were randomized by body weight into six groups: a control group of four, and five treatment groups of eight. […] Disease progression was monitored via daily ankle thickness measurements. At study termination on day 16 rats were anesthetized with Isoflurane, bled by vacutainer through the descending aorta to exsanguinate and then euthanized for tissue collection. Hind paws were transected at the level of the medial and lateral malleolus, weighed, and collected for microscopy.
[…]

c-Src = molecular target: T1, c-Src (Homo sapiens, UniProt P12931); assay: cSrc inhibition and kinase selectivity profile assay; format: biochemical; conditions: 500 nM; relative to DMSO; read-out: Residual enzymatic activity
T1 construct: purchased Reaction Biology Corporation (assay service)
Description: (§1) The activity of MT-SYK-03 against cSrc kinase and selectivity profile towards other 341 kinases was determined at Reaction Biology Corporation (Malvern, PA, USA) using the standard kinase assay protocol. […]; unbound phosphate was removed by extensive washing of filters in phosphoric acid. Kinase activity data was expressed as the percent remaining kinase activity in test samples compared to vehicle (dimethyl sulfoxide) reactions based on the radioactivity of reaction products (see Table S2). Experiment was replicated twice.

DYRK4 = molecular target: T2, DYRK4 (Homo sapiens, UniProt Q9NR20); assay: Kinase selectivity profile assay; format: biochemical; conditions: 500 nM; relative to DMSO; read-out: Residual enzymatic activity
T2 construct: purchased Reaction Biology Corporation
Description: The activity of MT-SYK-03 against cSrc kinase and selectivity profile towards other 341 kinases was determined at Reaction Biology Corporation (Malvern, PA, USA) using the standard kinase assay protocol. […] Kinase activity data was expressed as the percent remaining kinase activity in test samples compared to vehicle (dimethyl sulfoxide) reactions based on the radioactivity of reaction products (see Table S2). Experiment was replicated twice.

MKK6 = molecular target: T3, MKK6 (Homo sapiens, UniProt P52564); assay: Kinase selectivity profile assay; format: biochemical; conditions: 500 nM; relative to DMSO; read-out: Residual enzymatic activity
T3 construct: purchased Reaction Biology Corporation
Description: as §1

VRK1 = molecular target: T4, VRK1 (Homo sapiens, UniProt Q99986); assay: Kinase selectivity profile assay; format: biochemical; conditions: 500 nM; relative to DMSO; read-out: Residual enzymatic activity
T4 construct: purchased Reaction Biology Corporation
Description: as §1

CSK = molecular target: T5, CSK (Homo sapiens, UniProt P41240); assay: Kinase selectivity profile assay; format: biochemical; conditions: 500 nM; relative to DMSO; read-out: Residual enzymatic activity
T5 construct: purchased Reaction Biology Corporation (assay service)
Description: as §1

STK32B/YANK2 = molecular target: T6, STK32B/YANK2 (Homo sapiens, UniProt Q9NY57); assay: Kinase selectivity profile assay; format: biochemical; conditions: 500 nM; relative to DMSO; read-out: Residual enzymatic activity
T6 construct: purchased Reaction Biology Corporation
Description: as §1

[1] = ankle, day 16, MTX 0.075 mg/kg PO QD + test article vehicle PO BID, group mean
[2] = ankle, day 16, MTX 0.075 mg/kg PO QD + test article vehicle PO BID, individual joint (animal, R/L)
[3] = ankle, day 16, MTX 0.075 mg/kg PO QD + test article vehicle PO BID, vs vehicle
[4] = knee, day 16, MTX 0.075 mg/kg PO QD + test article vehicle PO BID, group mean
[5] = knee, day 16, MTX 0.075 mg/kg PO QD + test article vehicle PO BID, individual joint (animal, R/L)
[6] = knee, day 16, MTX 0.075 mg/kg PO QD + test article vehicle PO BID, vs vehicle

T1 sequence (P12931 whole entry): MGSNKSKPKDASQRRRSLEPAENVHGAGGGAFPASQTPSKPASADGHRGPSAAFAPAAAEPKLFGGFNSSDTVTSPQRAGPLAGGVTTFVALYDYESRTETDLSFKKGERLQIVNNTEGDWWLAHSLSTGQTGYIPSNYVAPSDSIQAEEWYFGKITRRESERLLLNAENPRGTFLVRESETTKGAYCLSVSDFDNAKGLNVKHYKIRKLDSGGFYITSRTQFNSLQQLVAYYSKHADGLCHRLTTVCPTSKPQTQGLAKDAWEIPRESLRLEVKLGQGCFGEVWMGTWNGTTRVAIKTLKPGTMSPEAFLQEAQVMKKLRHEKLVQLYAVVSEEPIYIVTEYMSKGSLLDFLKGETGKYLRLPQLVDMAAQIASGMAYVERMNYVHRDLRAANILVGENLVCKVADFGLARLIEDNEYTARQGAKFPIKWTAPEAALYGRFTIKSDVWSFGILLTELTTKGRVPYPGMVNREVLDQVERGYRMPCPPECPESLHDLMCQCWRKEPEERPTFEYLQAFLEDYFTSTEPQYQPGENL
T5 sequence (P41240 whole entry): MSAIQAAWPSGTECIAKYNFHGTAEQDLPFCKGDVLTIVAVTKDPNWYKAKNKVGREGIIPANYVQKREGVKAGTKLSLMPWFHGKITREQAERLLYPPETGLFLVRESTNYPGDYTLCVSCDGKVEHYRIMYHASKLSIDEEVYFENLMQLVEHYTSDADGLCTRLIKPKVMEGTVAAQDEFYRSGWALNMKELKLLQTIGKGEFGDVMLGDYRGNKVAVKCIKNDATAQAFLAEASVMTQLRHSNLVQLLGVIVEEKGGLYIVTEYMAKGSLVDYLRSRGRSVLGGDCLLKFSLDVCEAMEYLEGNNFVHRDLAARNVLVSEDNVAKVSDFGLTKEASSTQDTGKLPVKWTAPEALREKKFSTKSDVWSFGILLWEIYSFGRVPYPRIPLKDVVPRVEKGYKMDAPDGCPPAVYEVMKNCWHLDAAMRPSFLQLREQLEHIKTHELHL
T6 sequence (Q9NY57 whole entry): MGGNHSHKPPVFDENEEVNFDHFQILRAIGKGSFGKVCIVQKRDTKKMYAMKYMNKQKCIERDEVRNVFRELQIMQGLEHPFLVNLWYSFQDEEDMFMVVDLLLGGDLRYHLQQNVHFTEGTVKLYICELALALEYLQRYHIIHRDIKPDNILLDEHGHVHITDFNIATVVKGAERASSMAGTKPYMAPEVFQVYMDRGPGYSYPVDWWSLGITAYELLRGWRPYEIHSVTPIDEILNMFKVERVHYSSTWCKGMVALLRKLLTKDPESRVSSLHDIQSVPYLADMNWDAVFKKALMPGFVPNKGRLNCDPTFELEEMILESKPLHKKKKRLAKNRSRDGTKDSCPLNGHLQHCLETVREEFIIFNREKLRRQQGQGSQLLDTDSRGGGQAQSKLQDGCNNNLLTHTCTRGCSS
T2 sequence (Q9NR20 whole entry): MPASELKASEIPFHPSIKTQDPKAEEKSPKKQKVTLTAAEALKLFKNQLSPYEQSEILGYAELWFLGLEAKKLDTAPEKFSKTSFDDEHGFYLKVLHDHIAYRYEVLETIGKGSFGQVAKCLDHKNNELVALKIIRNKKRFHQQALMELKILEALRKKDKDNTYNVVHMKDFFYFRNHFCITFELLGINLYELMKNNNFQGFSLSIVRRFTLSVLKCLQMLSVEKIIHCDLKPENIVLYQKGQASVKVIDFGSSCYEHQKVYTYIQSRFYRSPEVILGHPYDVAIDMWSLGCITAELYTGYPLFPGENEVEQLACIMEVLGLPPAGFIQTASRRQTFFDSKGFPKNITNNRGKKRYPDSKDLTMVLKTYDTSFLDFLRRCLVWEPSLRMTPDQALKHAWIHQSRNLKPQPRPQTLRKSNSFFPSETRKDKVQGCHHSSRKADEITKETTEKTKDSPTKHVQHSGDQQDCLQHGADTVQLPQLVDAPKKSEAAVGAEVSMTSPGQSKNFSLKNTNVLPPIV
T4 sequence (Q99986 whole entry): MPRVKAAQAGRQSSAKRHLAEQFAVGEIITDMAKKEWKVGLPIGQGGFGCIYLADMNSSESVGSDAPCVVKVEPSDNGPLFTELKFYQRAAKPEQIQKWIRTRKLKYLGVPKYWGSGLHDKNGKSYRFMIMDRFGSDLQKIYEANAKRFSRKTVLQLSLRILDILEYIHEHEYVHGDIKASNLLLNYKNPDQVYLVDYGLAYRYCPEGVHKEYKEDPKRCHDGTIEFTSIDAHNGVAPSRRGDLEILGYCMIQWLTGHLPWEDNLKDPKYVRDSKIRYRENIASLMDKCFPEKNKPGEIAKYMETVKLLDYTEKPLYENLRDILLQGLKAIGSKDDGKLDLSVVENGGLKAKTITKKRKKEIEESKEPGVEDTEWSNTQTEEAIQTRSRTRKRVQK
T3 sequence (P52564 whole entry): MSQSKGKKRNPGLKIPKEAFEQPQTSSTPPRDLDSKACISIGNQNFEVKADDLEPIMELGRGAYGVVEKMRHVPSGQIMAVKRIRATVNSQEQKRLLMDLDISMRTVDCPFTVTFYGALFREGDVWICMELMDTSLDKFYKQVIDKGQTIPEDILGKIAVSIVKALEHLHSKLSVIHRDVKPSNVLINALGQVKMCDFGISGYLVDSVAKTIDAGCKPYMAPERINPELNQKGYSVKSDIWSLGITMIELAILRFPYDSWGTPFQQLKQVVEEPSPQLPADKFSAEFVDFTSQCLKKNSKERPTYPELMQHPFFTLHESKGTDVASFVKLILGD

CN(Cc1cnc2nc(N)nc(N)c2n1)c1ccc(C(=O)N[C@@H](CCC(=O)O)C(=O)O)cc1 [MTX, methotrexate, reference compound]
Animal death (mongrel rats, AIA model; Methotrexate 0.2 mg/kg QD intragastric, 14 days): 0%
Animal death (mongrel rats, AIA model; Methotrexate 0.2 mg/kg QD intragastric, 18 days): 0%
Animal death (mongrel rats, AIA model; Methotrexate 0.2 mg/kg QD intragastric, 21 days): 0%
Animal death (mongrel rats, AIA model; Methotrexate 0.2 mg/kg QD intragastric, 25 days): 10%
Animal death (mongrel rats, AIA model; Methotrexate 0.2 mg/kg QD intragastric, 28 days): 20%
Animal death (mongrel rats, AIA model; Methotrexate 0.5 mg/kg QD intragastric, 14 days): 0%
Animal death (mongrel rats, AIA model; Methotrexate 0.5 mg/kg QD intragastric, 18 days): 0%
Animal death (mongrel rats, AIA model; Methotrexate 0.5 mg/kg QD intragastric, 21 days): 0%
Animal death (mongrel rats, AIA model; Methotrexate 0.5 mg/kg QD intragastric, 25 days): 20%
Animal death (mongrel rats, AIA model; Methotrexate 0.5 mg/kg QD intragastric, 28 days): 70%
Rats died (mongrel rats, AIA model; rat AIA, MTX 0.2 mg/kg): 20%
Rats died (mongrel rats, AIA model; rat AIA, MTX 0.5 mg/kg): 70%
Volume of treated (CFA-injected) paws (mongrel rats, AIA model; rat AIA, day 28): statistically significant reductions of paw volume
Volume of non-involved paws (mongrel rats, AIA model; rat AIA, high-dose MTX, day 28): decreased the volume of non-involved paws
Volume of non-involved paws (mongrel rats, AIA model; rat AIA, low-dose MTX, day 28): no statistically significant effect
Bone Resorption score, Mean (Lewis rats, CIA model; [1]): 1.19
Cartilage Damage score, Mean (Lewis rats, CIA model; [1]): 2.00
Inflammation score, Mean (Lewis rats, CIA model; [1]): 3.88
Pannus score, Mean (Lewis rats, CIA model; [1]): 1.19
Periosteal Bone Formation score, Mean (Lewis rats, CIA model; [1]): 0.63
Periosteal Naïve Bone Width Actual, Mean (Lewis rats, CIA model; [1]): 126.00 μm
Summed Histopathology Scores, Mean (Lewis rats, CIA model; [1]): 8.88
Bone Resorption score (0=normal to 5=severe) (Lewis rats, CIA model; [2]): 2 and 0 and 1 and 0.5
Cartilage Damage score (0=normal to 5=severe) (Lewis rats, CIA model; [2]): 3 and 0.5 and 2
Inflammation score (0=normal to 5=severe) (Lewis rats, CIA model; [2]): 5 and 1 and 4 and 3 and 2
Pannus score (0=normal to 5=severe) (Lewis rats, CIA model; [2]): 2 and 0 and 1 and 0.5
Periosteal Bone Formation score (0=normal to 5=severe) (Lewis rats, CIA model; [2]): 1 and 0 and 0.5
Periosteal Naïve Bone Width 16x Measure (Lewis rats, CIA model; [2]): 3 and 4 and 0 and 2 and 1
Periosteal Naïve Bone Width Actual (Lewis rats, CIA model; [2]): 189 μm and 252 μm and 0 μm and 126 μm and 63 μm
Summed Histopathology Scores (Lewis rats, CIA model; [2]): 13 and 1.5 and 9.5 and 8.5 and 6.5 and 12 and 4
Periosteal Naïve Bone Width, ANOVA to Vehicle (Lewis rats, CIA model; ankle, day 16, MTX 0.075 mg/kg PO QD + test article vehicle PO BID, p value): p < 0.05
Bone Resorption score, % inhibition (Lewis rats, CIA model; [3]): 19%
Cartilage Damage score, % inhibition (Lewis rats, CIA model; [3]): 17%
Inflammation score, % inhibition (Lewis rats, CIA model; [3]): 14%
Pannus score, % inhibition (Lewis rats, CIA model; [3]): 19%
Periosteal Bone Formation score, % inhibition (Lewis rats, CIA model; [3]): 51%
Periosteal Naïve Bone Width, % inhibition (Lewis rats, CIA model; [3]): 44%
Summed Histopathology Scores, % inhibition (Lewis rats, CIA model; [3]): 20%
Bone Resorption score, Mean (Lewis rats, CIA model; [4]): 0.28
Cartilage Damage score, Mean (Lewis rats, CIA model; [4]): 0.66
Inflammation score, Mean (Lewis rats, CIA model; [4]): 2.03
Pannus score, Mean (Lewis rats, CIA model; [4]): 0.44
Summed Histopathology Scores, Mean (Lewis rats, CIA model; [4]): 3.41
Bone Resorption score (0=normal to 5=severe) (Lewis rats, CIA model; [5]): 0.5 and 0 and 1
Cartilage Damage score (0=normal to 5=severe) (Lewis rats, CIA model; [5]): 1 and 0.5 and 0 and 2
Inflammation score (0=normal to 5=severe) (Lewis rats, CIA model; [5]): 3 and 0.5 and 1 and 0 and 5 and 4 and 2
Pannus score (0=normal to 5=severe) (Lewis rats, CIA model; [5]): 0.5 and 0 and 1
Summed Histopathology Scores (Lewis rats, CIA model; [5]): 5 and 4.5 and 0.5 and 2 and 1 and 0 and 9 and 6 and 5.5 and 3
Bone Resorption score, % inhibition (Lewis rats, CIA model; [6]): 61%
Cartilage Damage score, % inhibition (Lewis rats, CIA model; [6]): 50%
Inflammation score, % inhibition (Lewis rats, CIA model; [6]): 36%
Pannus score, % inhibition (Lewis rats, CIA model; [6]): 42%
Summed Histopathology Scores, % inhibition (Lewis rats, CIA model; [6]): 43%
Decrease of periosteal bone width in knee joints (Lewis rats, CIA model; rat CIA, MTX 0.075 mg/kg PO QD): ~ 43%
Histopathology scores for cartilage damage and bone resorption, ankles and knees (Lewis rats, CIA model; rat CIA, day 16): did not show statistical significance for any parameter

COc1cc(Nc2ncc(F)c(Nc3ccc4c(n3)NC(=O)C(C)(C)O4)n2)cc(OC)c1OC [R406, reference compound]
remaining activity at 0.5 µM (c-Src): 6.8%
remaining activity at 0.5 µM (DYRK4): 77.1%
remaining activity at 0.5 µM (MKK6): 112%
remaining activity at 0.5 µM (VRK1): 98.8%
remaining activity at 0.5 µM (CSK): 20.6%
remaining activity at 0.5 µM (STK32B/YANK2): 92%
